Source: ChEMBL document CHEMBL6177988, “Design, synthesis, biophysical and biological evaluation of original condensed pyrrolopyrimidine and pyrrolopyridine ligands as anti-SARS-CoV-2 agents targeting G4” (Eur J Med Chem, 2025)

Columns and labels:
[1] = Selectivity index, ratio of CC50 for cytotoxicity against human A549 cells harboring ACE2-CI33 assessed as cell viability by celltiter glo assay to EC50 for antiviral activity against SARS-CoV-2 Wuhan infected in human A549 cells harboring ACE2-Cl33; format: toxicity, cell-based; settings: read-out: Ratio CC50/EC50
SARS-CoV-2 [2] = assay: Antiviral activity against SARS-CoV-2 Wuhan infected in human A549 cells harboring ACE2-Cl33 at 0.1 MOI assessed as inhibition of viral replication pretreated with compounds for 2 hrs followed by infection for 1 hr and measured after 72 hrs post-infection by qRT-PCR analysis; format: functional, organism-based; settings: Severe acute respiratory syndrome coronavirus 2, Wuhan
SARS-CoV-2 [3] = assay: Antiviral activity against SARS-CoV-2 Delta B1.617.2 infected in human A549 cells harboring ACE2-Cl33 at 0.1 MOI assessed as inhibition of viral replication pretreated with compounds for 2 hrs followed by infection for 1 hr and measured after 72 hrs post-infection by qRT-PCR analysis; format: functional, organism-based; settings: Severe acute respiratory syndrome coronavirus 2, Delta B1.617.2, A549
SARS-CoV-2 [4] = assay: Antiviral activity against SARS-CoV-2 Wuhan infected in human Caco-2 cells harboring ACE2-Cl33 at 0.1 MOI assessed as inhibition of viral replication pretreated with compounds for 2 hrs followed by infection for 1 hr and measured after 72 hrs post-infection by qRT-PCR analysis; format: functional, organism-based; settings: Severe acute respiratory syndrome coronavirus 2, Wuhan
[5] = Selectivity index, ratio of CC50 for cytotoxicity against human Caco-2 cells harboring ACE2-CI33 assessed as cell viability by celltiter glo assay to EC50 for antiviral activity against SARS-CoV-2 Wuhan infected in human A549 cells harboring ACE2-Cl33; format: toxicity, cell-based; settings: read-out: Ratio CC50/EC50

Q: For `CN(C)CCCCCNCc1ccc(-c2cc3c(ccn3-c3ccccc3)c(-c3ccc(CNCCCCCN(C)C)cc3)n2)cc1`, which selectivity ratio [1] is on record?
A: Its selectivity ratio is 8.18.

Q: With `CN(C)CCCCNCc1ccc(-c2cc(-c3ccc(CNCCCCN(C)C)cc3)c3ccn(-c4ccccc4)c3c2)cc1` as the compound, how does the EC50 (SARS-CoV-2 [2]) read?
A: The EC50 was 528 nM.

Q: What about the selectivity ratio [1] of the same compound?
A: Its selectivity ratio is 1.88.

Q: What about the EC50 (SARS-CoV-2 [3]) of the same compound?
A: The EC50 was 681 nM.

Q: And the EC50 (SARS-CoV-2 [4])?
A: Its EC50 is 787 nM.

Q: What about the selectivity ratio [5] of the same compound?
A: The selectivity ratio was 0.93.

Q: Which selectivity ratio [1] does the source give for `CN1CCN(CCCCNCc2ccc(-c3cc(-c4ccc(CNCCCCN5CCN(C)CC5)cc4)c4ccn(-c5ccccc5)c4c3)cc2)CC1` here?
A: Its selectivity ratio is 2.74.

Q: With `CN(C)CCCCNCc1ccc(-c2nc(-c3ccc(CNCCCCN(C)C)cc3)c3ccn(-c4ccc(CNCCCCN(C)C)cc4)c3n2)cc1` as the compound, how does the selectivity ratio [1] read?
A: Its selectivity ratio is 6.67.

Q: With `CN(C)CCCCNCc1ccc(-c2nc(-c3ccc(CNCCCCN(C)C)cc3)c3ncn(-c4ccccc4)c3n2)cc1` as the compound, how does the selectivity ratio [1] read?
A: Its selectivity ratio is no less than 2.68.

Q: For `CCN(CC)CCCCNCc1ccc(-c2cc3c(ccn3-c3ccccc3)c(-c3ccc(CNCCCCN(CC)CC)cc3)n2)cc1`, which selectivity ratio [1] is on record?
A: The selectivity ratio was greater than 13.9.

Q: Which selectivity ratio [1] does the source give for `CN(C)CCCCNCc1ccc(-c2cc3c(ccn3-c3ccccc3)c(-c3ccc(CNCCCCN(C)C)cc3)n2)cc1` here?
A: Its selectivity ratio is 2.18.

Q: With `CN(C)CCCCNCc1ccc(-c2cn(-c3ccccc3)c3ncnc(-c4ccc(CNCCCCN(C)C)cc4)c23)cc1` as the compound, how does the selectivity ratio [1] read?
A: Its selectivity ratio is greater than 9.3.

Q: With `CN(C)CCCCNCc1ccc(-c2ccc3ccc4ccc(-c5ccc(CNCCCCN(C)C)cc5)nc4c3n2)cc1` as the compound, how does the EC50 (SARS-CoV-2 [2]) read?
A: Its EC50 is 9170 nM.

Q: What about the selectivity ratio [1] of the same compound?
A: Its selectivity ratio is greater than 1.09.

Q: For `CN1CCN(CCCCNCc2ccc(-c3ccc4ccc5ccc(-c6ccc(CNCCCCN7CCN(C)CC7)cc6)nc5c4n3)cc2)CC1`, which EC50 (SARS-CoV-2 [2]) is on record?
A: The EC50 was greater than 10000 nM.

Q: Which selectivity ratio [1] does the source give for `CN(C)CCCNCc1ccc(-c2cn(-c3ccc(CNCCCN(C)C)cc3)c3ncnc(-c4ccc(CNCCCN(C)C)cc4)c23)cc1` here?
A: The selectivity ratio was greater than 1.43.

Q: With `CN(C)CCCCNCc1ccc(-c2cc(-c3ccc(CNCCCCN(C)C)cc3)c3ccn(-c4ccccc4)c3n2)cc1` as the compound, how does the selectivity ratio [1] read?
A: The selectivity ratio was 7.38.

Q: What does the source list for `CN(C)CCCCNCc1ccc(-c2nc(-c3ccccc3)c3ccn(-c4ccc(CNCCCCN(C)C)cc4)c3n2)cc1`?
A: EC50 (SARS-CoV-2 [2]): 920 nM; selectivity ratio [1]: 2.64

Q: For `CN(C)CCCNCc1ccc(-c2nc(-c3ccc(CNCCCN(C)C)cc3)c3ccn(-c4ccc(CNCCCN(C)C)cc4)c3n2)cc1`, which EC50 (SARS-CoV-2 [2]) is on record?
A: The EC50 was 436 nM.

Q: What about the selectivity ratio [1] of the same compound?
A: Its selectivity ratio is greater than 14.6.

Q: And the EC50 (SARS-CoV-2 [4])?
A: Its EC50 is 1540 nM.

Q: And the selectivity ratio [5]?
A: The selectivity ratio was no less than 4.57.

Q: For `CN(C)CCCCCNCc1ccc(-c2cc(-c3ccc(CNCCCCCN(C)C)cc3)c3ccn(-c4ccccc4)c3c2)cc1`, which EC50 (SARS-CoV-2 [2]) is on record?
A: The EC50 was 1320 nM.

Q: What about the selectivity ratio [1] of the same compound?
A: Its selectivity ratio is 2.35.

Q: And the EC50 (SARS-CoV-2 [3])?
A: Its EC50 is 1280 nM.

Q: What about the EC50 (SARS-CoV-2 [4]) of the same compound?
A: The EC50 was 946 nM.

Q: What about the selectivity ratio [5] of the same compound?
A: The selectivity ratio was 1.88.

Q: Which selectivity ratio [1] does the source give for `CN(C)CCCCNCc1ccc(-c2nc(-c3ccc(CNCCCCN(C)C)cc3)c3c(ccn3-c3ccccc3)n2)cc1` here?
A: The selectivity ratio was greater than 15.1.

Q: Which selectivity ratio [1] does the source give for `CCC(CC)COC(=O)[C@H](C)N[P@](=O)(OC[C@H]1O[C@@](C#N)(c2ccc3c(N)ncnn23)[C@H](O)[C@@H]1O)Oc1ccccc1` [REMDESIVIR] here?
A: Its selectivity ratio is greater than 1.18.

Q: Which selectivity ratio [1] does the source give for `O=c1c(O)cc([C@H]2Oc3cc(O)cc(O)c3C[C@H]2O)cc2c([C@H]3Oc4cc(O)cc(O)c4C[C@H]3O)cc(O)c(O)c12` [THEAFLAVIN] here?
A: Its selectivity ratio is greater than 83.3.
